The subject of data set [1] is RAW264.7. Description: Inhibition of LPS-induced nitric oxide production in mouse RAW264.7 cells treated 1 hr before LPS challenge measured after 24 hrs by Griess reaction. The format is functional, cell-based.
The subject of data set [2] is RAW264.7. As to the kind of experiment: Inhibition of LPS-induced NF-kappaB activation in mouse RAW264.7 cells at up to 30 ug/ml after 30 mins by electrophoretic mobility shift assay. The format is cell-based. Background: In EMSA bound probe runs differently from free probe, usually more slowly.
The target in data set [3] is Transcription factor p65 (Homo sapiens) (UniProt Q04206). Description: Binding affinity to recombinant NF-kappaB transcription factor p65 subunit (1-325) at 4 equiv mol concentration after 1 hr by MALDI-TOF MS analysis.
Chain of Transcription factor p65 (Homo sapiens) (Q04206 whole entry): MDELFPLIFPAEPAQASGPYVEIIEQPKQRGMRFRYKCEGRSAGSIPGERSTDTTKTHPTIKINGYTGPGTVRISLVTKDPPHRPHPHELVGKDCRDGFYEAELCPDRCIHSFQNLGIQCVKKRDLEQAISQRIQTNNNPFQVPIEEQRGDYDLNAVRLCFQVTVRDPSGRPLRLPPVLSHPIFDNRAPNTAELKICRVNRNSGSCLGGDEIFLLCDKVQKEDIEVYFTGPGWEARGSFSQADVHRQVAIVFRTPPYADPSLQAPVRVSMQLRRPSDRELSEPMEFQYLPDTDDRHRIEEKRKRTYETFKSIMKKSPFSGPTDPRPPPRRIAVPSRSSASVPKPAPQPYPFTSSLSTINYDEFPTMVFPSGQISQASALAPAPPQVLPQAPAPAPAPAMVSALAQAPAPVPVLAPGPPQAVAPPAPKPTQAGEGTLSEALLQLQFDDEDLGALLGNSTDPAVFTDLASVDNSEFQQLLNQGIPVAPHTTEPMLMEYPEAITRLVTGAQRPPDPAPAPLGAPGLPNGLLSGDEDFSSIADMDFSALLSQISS
Data set [4] deals with RAW264.7. Description: Inhibition of LPS-induced iNOS expression in mouse RAW264.7 cells at up to 30 ug/ml treated 1 hr before LPS challenge measured after 6 hrs by immunoblotting. The format is functional, cell-based. (In general: In western blotting, separated proteins are transferred to a membrane and probed.)
Data set [5] concerns RAW264.7. As to the kind of experiment: Cytotoxicity in mouse RAW264.7 cells at 30 ug/ml after 24 hrs by MTT assay. The format is cell-based. As to conditions: raw264.7, 24 h. In general terms: Tetrazolium assays rely on reduction of a dye to a coloured formazan, in cell work by metabolically active cells.

The source made the active and inactive calls. No cut-off for these calls is given here.

For the compound `C=CCOC(=O)NC1=CC(=O)[C@H]2O[C@H]2[C@@H]1O` (relative stereo), the inhibition entry with RAW264.7 [1] was “Dose-dependent effect”. In addition, the inhibition result with RAW264.7 [2] and with RAW264.7 [4] was “Active” in each case. In addition, the outcome in data set [3] was inactive. The Activity entry in the data set with RAW264.7 [5] is recorded as “Toxic”.
`C=CCOC(=O)NC1=CC(=O)[C@H]2O[C@H]2[C@H]1O` (relative stereo): in data set [3], the result was Active. The inhibition result with RAW264.7 [4] is “Active”.

Values taken from ChEMBL document CHEMBL1255561, “A new NF-κB inhibitor based on the amino-epoxyquinol core of DHMEQ” (Bioorg Med Chem Lett, 2010).
